Source: US12365643B2, “Phenoxy carboxylic acid compounds and medical uses thereof” (QINGDAO RISING BIOTECHNOLOGY CO., LTD, priority 2018, dated 2025)

Columns and labels:
PGC1α = PGC1α mRNA expression by real-time quantitative PCR in HepG2; type: cell-based, human; conditions: 1 μM, 6 hours, HepG2 (FIG. 5C)
Description: Peroxisome proliferation factor activated receptor (PPAR) is an important nuclear receptor that regulates glycolipid metabolism, including three subtypes: α, β/δ and γ. Peroxisome proliferator-activated receptor γ coactivator 1α (PGC-1α) is its auxiliary transcriptional activator. Acyl-CoA oxidase 1 (ACOX1) is the first rate-limiting enzyme for fatty acid β oxidation. Fatty acid binding protein 1 (FABP1) is highly expressed in liver, and can bind fatty acid, heme and other molecules to reduce their toxicity and damage. Up-regulating the expression level of these genes helps to improve the body's metabolism, and their agonists are an important class of anti-metabolic drugs. After the compound of the present application (1 μM) and the control drug gemfibrozil (1 μM) were incubated with human liver cancer cells HepG2 for 6 hours, real-time fluorescent quantitative PCR method was used to determine the relative expression of mRNA of related genes in the cells.
The company which synthesized the primers was Suzhou Hongxun Biotechnology Co., Ltd. Tranzol reagent (Tranzol total RNA extraction reagent, TransGen Biotech) was used to extract total RNA from tissues. 5× All-In-One RT MasterMix reverse transcription kit (Abcam, USA) and real-time quantitative PCR Master Mix (Aidlab Biotechnologies Co., Ltd) were used. Bio-Rad CFX Connect™ Real-Time PCR Detection System for qPCR was used, and 2^−ΔΔCT method was used for data analysis. The expression level of mRNA in the normal control group was set to 1, and the relative expression level of mRNA in the administration group was calculated, so as to confirm whether the active compound affected the PPAR pathway, thereby further regulating lipid metabolism.

[1] = system: antioxidant response element (ARE); assay: ARE luciferase reporter gene activity in HepG2 cells; type: cell-based, human; conditions: 50 μM, HepG2 stably transfected (FIG. 4)
Experimental: (§1) NF-κB was the most important inflammatory signal pathway. SW480 human colon cancer cells stably transfected with a luciferase reporter gene driven by NF-κB were used to determine the effects of the compound of the present application and the control drug gemfibrozil on NF-κB transcriptional activity, which comprised the following steps. • (1) Cells stably transfected with NF-κB Luc were cultivated to exponential growth, inoculated at a culture medium concentration of 1×10^5/[…] in a 24-well plate, and cultured for 24 hours, the medium was discarded, and the test compound or gemfibrozil formulated with serum-free medium at 50 μM were added to the 24-well plate and incubation was continued for 6 hours. After washing once with 200 μL of PBS, 100 μL of reporter gene cell lysis buffer was added, the cells were lysed on ice for 10 minutes, and the cell lysate was collected by pipetting. • (2) After centrifugation was performed at 8000 rpm and 4° C. for 10 min, the supernatant was pipetted for fluorescence assay. • (3) The measurement gap time of chemiluminescence analyzer was set to 2 s and the measurement time was set to 10 s. Automatic sample injection was adopted, 50 μL of luciferase assay reagent was added to each well. The reporter gene cell lysis buffer was used as a blank control. • (4) After centrifugation, the supernatant was taken, and the BCA method was used to determine the protein concentration so as to normalize the reporter gene results.
In this experimental example, the luciferase activity in HepG2 human liver cancer cells stably transfected with a luciferase reporter gene driven by antioxidant response element (ARE) was determined to evaluate the regulatory effects of the compound of the present application and gemfibrozil on the transcriptional activity of transcription factor Nrf2 and the cellular oxidative stress response signals, in which the operation process of the reporter gene assay was the same as that of Experimental Example 2.2.

NF-κB = NF-κB luciferase reporter gene transcriptional activity in SW480 cells; type: cell-based, human; conditions: 50 μM, 6 hours, SW480 stably transfected (FIG. 3)
Experimental: as §1

[2] = system: RAW264.7 mouse macrophages; assay: Determination of NO generation induced by LPS; type: cell-based; conditions: 10 μM, 1 μg/mL LPS, 24 hours, RAW264.7 (FIG. 2)
Experimental: The results are expressed as the multiple of the NO content in the cell culture supernatant of the administration group (10 μM) as compared with that in the cell culture supernatant of the control group (DMSO group), in which compared with the control group, *P<0.05, **P<0.01, ***P<0.001.
NO is a reactive nitrogen species (RNS) and an important gas signal molecule. Macrophages could convert arginine into NO which participated in the body's inflammatory response. Therefore, determination of inhibitory activity of a drug on NO generation was one of the classic methods to evaluate drug's anti-inflammatory ability. RAW264.7 cells at exponential growth phase were inoculated into a 96-well plate at 1×10^4 cells/200 μL. well of medium. After adherence, the medium was discarded, and the cells were subjected to drug treatments. Normal group (serum-free medium), LPS model group (serum-free medium containing 1 μg/mL LPS), LPS+drug group (serum-free medium containing 1 μg/mL LPS, 10 μM gemfibrozil or the compound of the present application) were established, and 3 repeated wells were set for each group. After 24 hours incubation in incubator, cell supernatant of each well was collected and assay was performed according to the instructions of NO determination kit (Nanjing Jiancheng). The absorbance value of each well at wavelength of 540 nm was read and NO content was calculated.

## Cc1ccc(C)c(OCCCC(C)(C)C(=O)O)c1 [gemfibrozil, Gemfibrozil, reference compound]
PGC1α
  PGC1α mRNA expression: could not activate PGC1α expression
[1]
  ARE reporter gene activity: did not obviously activate the ARE
NF-κB
  activity of NF-κB reporter gene: could not inhibit the activity of NF-κB reporter gene
[2]
  NO generation induced by LPS: did not have an activity of inhibiting NO generation

## Cc1cc(OCCCC(C)(C)C(=O)O)c(C)cc1Cl [BJMU-1, 5-(4-chloro-2,5-dimethylphenoxy)-2,2-dimethylpentanoic acid]
PGC1α
  PGC1α mRNA expression: significantly induced PGC1α mRNA expression
[1]
  ARE reporter gene activity: could significantly activate the ARE reporter gene activity
NF-κB
  activity of NF-κB reporter gene: could significantly inhibit the activity of NF-κB reporter gene
[2]
  NO generation induced by LPS: could inhibit NO generation

## Cc1cc(OCCCC(C)(C)C(=O)O)c(C)cc1F [BJMU-3, 5-(4-fluoro-2,5-dimethylphenoxy)-2,2-dimethylpentanoic acid]
PGC1α
  PGC1α mRNA expression: significantly induced PGC1α mRNA expression
[1]
  ARE reporter gene activity: could significantly activate the ARE reporter gene activity
[2]
  NO generation induced by LPS: could inhibit NO generation

## Cc1cc(OCCCC(C)(C)C(=O)O)c(C)cc1Br [BJMU-2, 5-(4-bromo-2,5-dimethylphenoxy)-2,2-dimethylpentanoic acid]
PGC1α
  PGC1α mRNA expression: significantly induced PGC1α mRNA expression
[1]
  ARE reporter gene activity: could significantly activate the ARE reporter gene activity
NF-κB
  activity of NF-κB reporter gene: could significantly inhibit the activity of NF-κB reporter gene
[2]
  NO generation induced by LPS: could inhibit NO generation
